The values below come from patent US9655824B2, “Use of diphenylmethane derivatives as tyrosinase inhibitors” (Symrise AG, priority 2003, dated 2017).

The IC20 is the point of the concentration-response curve where the effect stands at 20%. By IC50 is commonly meant the point on the concentration scale where inhibition reaches its midpoint. Read a low IC50 as inhibition by little substance. The term pIC50 denotes −log10 of the IC50, conventionally taken in molar units.

Common to all, as to assay type: cell-based
The nature of data set [1]: Cytotoxicity determination (MTT), 3T3 cells. The following applies: mouse, 3T3 fibrosarcoma cells; 3T3 cells, 48 h incubation, MTT. As for the experimental part: (§1) 3T3 fibrosarcoma cells or B16V mouse melanoma cells are distributed in a 96-well microtitre plate in a concentration of 1×10^4 cells/well (3T3) or 2×10^4 cells/well (B16V). After culturing for 24 h at 37° C. and 5% CO2 in DMEM medium (3T3 cells) or RPMI medium (B16V cells), enriched with 10% foetal calf serum, the medium is removed by suction. Various concentrations of the test substances, dissolved in fresh medium enriched with 5% foetal calf serum, are added and the plates are incubated for a further 48 h. A parallel incubation is carried out using SDS as standard in concentrations of 0.01 mM, 0.1 mM, 1 mM and 10 mM. After the incubation, the medium is removed by suction and the cells are incubated for with (sic) 2 h with MTT (3-[4,5-dimethylthiazol-2-yl]2,5-diphenyl tetrazolium bromide). After extraction of the dye with SDS acidified with acetic acid in DMSO (10 min), the absorption (A) at 570 nm is measured.
(§2) Average value and standard deviation of the controls, the blanks and the samples are calculated. The average value of the blanks is substracted from the average values of the controls and samples. The viability of the cells is indicated as a percentage with respect to the controls (100%): Viability (%)=(Atest compound/Acontrol)×100]

For data set [2], the system named is B16V mouse melanoma cells. The experiment in a line: Lightening effect: inhibition of pigmentation in α-MSH-stimulated B16V cells. As to conditions: for pIC50: Mus musculus, B16V cells, 10 nM α-MSH, 96 h, absorption 400 nm; for Activity greater than that of kojic acid by a factor: ratio of IC50 values versus kojic acid. As to the method:
Test method: B16V mouse melanoma cells are distributed in a 96-well micro titre plate in a concentration of 5×10^3 cells/well. After culturing for 24 h at 37° C. and 5% CO2 in RPMI medium, enriched with 10% foetal calf serum, various concentrations of the test substances and 10 nM α-MSH (α-melanocyte stimulating hormone) are added and the plates are incubated for a further 96 h. The maximum concentration of the test substances used corresponds to 0.1 times the value of the particular IC20 value from the cytotoxicity assay. A parallel incubation was carried out with kojic acid as standard in concentrations of 0.01 mM, 0.1 mM and 1 mM. After the incubation, SDS and NaOH (final concentrations: 1 mM and 1M, respectively) are added to the culture medium and the adsorption (A) is measured at 400 nm after 3 h. The inhibition of the pigmentation in the presence of the test compounds or kojic acid was calculated in accordance with the following equation: Inhibition of pigmentation (%)=100−[(Atest compound/Acontrol)×100] The IC50 is calculated for each test compound from the inhibition of the pigmentation (%) in a series of dilutions of test compounds. The IC50 is the concentration of a test compound at which the pigmentation is 50% inhibited.

A short description of data set [3]: Cytotoxicity determination (MTT), B16V cells. The following applies: mouse, B16V melanoma cells, 48 h incubation. As to the method:
as §1, §2

Another data set concerns 3T3 fibrosarcoma cells. Briefly: Cytotoxicity determination (MTT), 3T3 cells. As to conditions: approximately comparable to 4-hexylresorcinol. As for the experimental part:
as §1, §2

pIC50: −log10 of the molar value.

In the case of `CCCCCCc1ccc(O)cc1O` [4-hexylresorcinol], in data set [1], the 20% effect concentration (IC20) at 48 h is 70 µM and the IC50 at 48 h is 140 µM. In addition, in data set [2], the pIC50 is 5.28 and the “Activity greater than that of kojic acid by a factor” value is on record as “approximately 87”.

On to `O=c1cc(CO)occ1O` [Kojic acid, 5-hydroxy-2-hydroxymethyl-4-pyranone], for which, in data set [1], the concentration for an effect of 20% (IC20) at 48 h was over 100000 µM and the IC50 at 48 h is over 100000 µM. Besides, in data set [3], the IC20 at 48 h was over 100000 µM and the concentration for half-maximal inhibition (IC50) at 48 h is over 100000 µM.

As to `CC(c1ccccc1)c1ccc(O)cc1O` (stereo not shown) [Styrylresorcinol (4), 4-(1-phenylethyl)-1,3-dihydroxybenzene], in the data set on 3T3 fibrosarcoma cells, the “Cytotoxicity (in words)” value is listed as “relatively low cytotoxicity”. Also, in data set [1], it took 70 µM to reach the 20% level (IC20 at 48 h) and half-maximal inhibition (IC50 at 48 h) was put at 150 µM. In data set [3], this molecule gave an IC20 at 48 h of 20 µM and an IC50 at 48 h of 140 µM. In data set [2], the pIC50 was 5.68 and the “Activity greater than that of kojic acid by a factor” value is “approximately 215”. Moreover, the “Effectiveness compared with 4-hexylresorcinol” value in data set [2] (versus 4-hexylresorcinol) was “more than twice as effective”.
